Data taken from US10065957B2, “Beta-lactamase inhibitors” (Novartis AG, priority 2016, dated 2018).

Experiments:
Assay in all cases: Potentiation of piperacillin in beta-lactam resistant clinical isolate
Type in all cases: cell-based
Details in all cases: Pip + BLI at 2 μg/mL
[1] = system: Enterobacter cloacae NB25055 (CMY-2)
Procedure: (§1) MICs were determined by the broth microdilution method in accordance with Clinical and Laboratories Institute (CLSI) guidelines. In brief, fresh overnight bacterial cultures were suspended in sterile saline, and adjusted to a 0.5 McFarland turbidity standard. Bacterial suspensions were then diluted in cation adjusted Mueller-Hinton Broth (MHB II; BBL) to yield a final inoculum of approximately 5×10^5 colony-forming units (CFU)/mL. A master plate of antibiotics was prepared at a concentration equivalent to hundred-fold the highest desired final concentration in 100% dimethyl sulfoxide (DMSO). The master antibiotic plate was then diluted by serial twofold dilution with a multichannel pipette. The resulting dilution series of compounds were diluted 1:10 with sterile water or a solution of beta-lactamase inhibitor prepared at a concentration equivalent to eleven-fold the desired final concentration in deionized water leading to a 10% DMSO final concentration. A volume of 10 μL of the drug dilution series was transferred to 96-well assay plates. Assay plates were inoculated with 90 μL of bacterial suspensions and incubated at 35° C. for 20 hrs. The assay plates were read using a microtiter plate reader (Molecular Devices) at 600 nm as well as by visual observation with a reading mirror. The lowest concentration of the compound that prevented visible growth was recorded as the MIC. Performance of the assay was monitored by testing aztreonam against laboratory quality control strains in accordance with guidelines of the CLSI.
(§2) Synergy or potentiation of beta-lactam antibiotics through inhibition of Q-lactamases was assessed against an isogenic panel of E. coli strains, each expressing a unique beta-lactamase, and against clinical strains.

[2] = system: K. pneumoniae NB29082 (KPC-2)
Procedure: as §1, §2

S. aureus NB01437 (BLA+) = system: S. aureus NB01437 (BLA+)
Procedure: as §1, §2

O=C1NC[C@@H]2C[C@@H]3CN(C(=O)N3OS(=O)(=O)[O-])[C@H]12.[Na+] [Example 1, Sodium (4R,5aS,8aS)-2,8-dioxohexahydro-2H-1,4-methanopyrrolo[3,4-d][1,3]diazepin-3(4H)-yl sulfate]
Activity of piperacillin with beta-lactamase inhibitor [1]: 4 µg/mL
Activity of piperacillin with beta-lactamase inhibitor [2]: 8 µg/mL
Activity of piperacillin with beta-lactamase inhibitor (S. aureus NB01437 (BLA+)): 1 µg/mL
